SMILES strings stand for the structures.

Consider six molecules from patent US9617310B2 (priority 2013, dated 2017).

For one assay, the target named is T1, NS3 genotype 1b protease (Hepatitis C virus genotype 1b, UniProt Q9WMX2, E1202G).
T1 construct: Purified NS3 protease domain (amino acids 1-181) of the genotype 1b and 3a virus were generated as above; K3 hexahistidine tag (N); rTEV protease cleavage site (N); made in house; host or cells: E. coli BL21AI
The assay is described as follows: Ki determination, NS3 protease genotype 1b (fluorogenic depsipeptide substrate). It counts as biochemical. The note with it: NS3 protease domain genotype 1b, NS4A peptide. The text has this: Ki Determination for Genotypes 1b and 3a NS3 Protease.
Purified NS3 protease domain (amino acids 1-181) of the genotype 1b and 3a virus were generated as above. The internally quenched fluorogenic depsipeptide substrate Ac-DED(Edans)-EEAbuψ[COO]ASK(Dabcyl)-NH2 and a synthetic peptide containing the hydrophobic core residues of the NS4A protein cofactor ([…]; NS4A peptide) were obtained from Anaspec, Inc. (San Jose, Calif.). Other chemicals and biochemicals were of reagent grade or better and were purchased from standard suppliers.
Reactions were run at room temperature in buffer consisting of 50 mM HEPES, 40% glycerol, 0.05% Triton X-100, 10 mM DTT, and 10% DMSO. The final assay solutions contained 50 pM NS3 genotype 1b protease or 200 pM genotype 3a protease, 20 μM NS4A peptide, and 4 μM substrate (genotype 1b) or 2 μM substrate (genotype 3a). Inhibitor concentrations varied from 100 nM to 5 pM in 3-fold dilutions, and no-inhibitor controls were included.
Compound dilutions were made in DMSO at 20× final concentration. Reaction mixtures were prepared in 96-well assay plates. A solution of enzyme and NS4A peptide in assay buffer (25 μL volume with both reagents at 4× final concentration) was mixed with 45 μL assay buffer and 5 μL of either inhibitor or DMSO, and pre-incubated at room temperature for 1 hour. The reaction was started by addition of 25 μL substrate solution at 4× final concentration. Plates were mixed vigorously for 5-10 seconds and reactions were allowed to proceed for 90 minutes. Fluorescence was measured every 30 s between 90 and 120 minutes reaction time using a Tecan InfiniTe M1000 or PerkinElmer Envision multimode plate reader with an excitation wavelength of 340 nm and an emission wavelength of 490 nm.
Rates were calculated from the progress curves at steady state, in the time frame of 90-120 minutes after addition of substrate. To determine the Ki, rates were plotted as a function of inhibitor concentration, and the data were fit with equation 1 (Morrison, J. F., Biochimica et Biophysica Acta 1969, 185, 269-286) to calculate Ki^app using GraphPad Prism 5. Active fraction of enzyme was determined by active site titration with known potent inhibitors. Ki was calculated from Ki^app/(1+[[S]/Km]).

The subject of assay [1] is genotype 1a stable HCV replicon (H77) in Huh-7-derived cells. The assay can be described thus: Stable subgenomic HCV replicon, genotype 1a, Renilla luciferase. As to conditions: Hepatitis C virus, stable replicon genotype 1a, 72 h, read-out: EC50 1A RLUC. The class given is cell-based. As to the method:
(§1) Antiviral potency (EC50) was determined in both stable subgenomic HCV replicon cell lines and transient-transfected HCV replicon cells. The term half maximal effective concentration (EC50) refers to the concentration of a drug which induces a response halfway between the baseline and maximum after the exposure time specified below.
(§2) Stable subgenomic HCV replicons for genotype 1a, 1b, 2a, 3a, and 4a were established in Huh-7-derived cells as described by Lohmann et al (Lohmann V, Korner F, Koch J, et al Replication of subgenomic hepatitis C virus RNAs in a hepatoma cell line. Science 1999; 285:119-3). Each stable cell line contains a bicistronic HCV replicon that encodes a humanized Renilla luciferase (hRLuc) reporter gene fused to a selectable neomycin-resistance gene, followed by an EMCV IRES and the NS3-NS5B coding region of HCV. […] Luciferase activity was measured as a marker for intracellular HCV replication levels.
(§3) The genotype 1a stable replicon was derived from the H77 HCV strain and contained adaptive mutations P1496L and S2204I. The genotype 1b stable replicon was derived from the Con1 HCV strain and contained adaptive mutations E1202G, T1280I, and K1846T. […] The genotype 3a stable replicon was derived from the S52 HCV strain and contained adaptive mutations P1121 L, A1198T and S2210I (equivalent to S2204I in genotype 1). The genotype 4a stable replicon was derived from the ED43 HCV strain and contained adaptive mutations Q1691R and S2204I. All replicon cell lines were propagated in Huh-7-derived cells and maintained in Dulbecco's modified Eagle's Medium (DMEM) supplemented with 10% fetal bovine serum (FBS) and 0.5 mg/ml G418.
(§4) To perform EC50 assays, cells from each HCV replicon were dispensed into 384-well plates. Compounds were dissolved in DMSO at a concentration of 10 mM and diluted in DMSO using an automated pipetting instrument. Three-fold serially diluted compounds were directly added to the cells using an automated instrument. DMSO was used as a negative (solvent; no inhibition) control, and a combination of three HCV inhibitors including a protease inhibitor; an NS5A inhibitor and a nucleoside inhibitor was used at concentrations >100×EC50 as a positive control (100% inhibition). Seventy-two hours later, cells were lysed and Renilla luciferase activity were quantified as recommended by the manufacturer (Promega-Madison, Wis.). Non-linear regression was performed to calculate […], values.
On the technique in general: In antiviral work, replicon cells carry a viral genome segment that copies itself.

Assay [2] has as its system genotype 4a stable HCV replicon (ED43) in Huh-7-derived cells. The assay is described as follows: Stable subgenomic HCV replicon, genotype 4a, Renilla luciferase. The note with it: Hepatitis C virus, 72 h, read-out: EC50 4A RLUC. It counts as cell-based. As to the method:
as §1, §2, §3, §4

Assay [3] has as its system genotype 3a transient HCV replicon (S52) in Huh-7-derived cells. The assay can be described thus: Transient-transfected HCV replicon, genotype 3a wild type. The class given is cell-based. The note with it: Hepatitis C virus; transient-transfected replicon genotype 3a wild type, 72 h; read-out: EC50 3A WT.
The test system of assay [4] is genotype 1a (H77) wild-type transient HCV replicon in Huh-7-derived cells. The assay can be described thus: Transient-transfected HCV replicon, genotype 1a wild type. The note with it: Hepatitis C virus; transient-transfected replicon genotype 1a wild type, 72 h; read-out: EC50 1A WT. It counts as cell-based.
Assay [5] has as its system NS3/4a protease inhibitor resistant variant R155K in genotype 1a transient HCV replicon. The assay can be described thus: Transient-transfected HCV replicon, genotype 1a R155K. It counts as cell-based. The note with it: Hepatitis C virus, 72 h, read-out: EC50 1A R155K.
Assay [6] has as its system genotype 1b wild-type transient HCV replicon in Huh-7-derived cells. The assay can be described thus: Transient-transfected HCV replicon, genotype 1b wild type. The class given is cell-based. The note with it: Hepatitis C virus; transient-transfected replicon genotype 1b wild type, 72 h; read-out: EC50 1B WT.

T1 sequence (Q9WMX2 1027-1207 E1202G, other chains not shown): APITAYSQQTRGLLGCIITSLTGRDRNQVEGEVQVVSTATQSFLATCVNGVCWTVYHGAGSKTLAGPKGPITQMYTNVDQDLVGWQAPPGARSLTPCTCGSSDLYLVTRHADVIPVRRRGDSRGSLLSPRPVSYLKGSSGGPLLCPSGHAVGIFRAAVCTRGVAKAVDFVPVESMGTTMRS

The molecule `COc1ccc2nc3c(nc2c1)O[C@@H]1C[C@@H](C(=O)N[C@]2(C(=O)NS(=O)(=O)C4(C)CC4)C[C@H]2C(F)F)N(C1)C(=O)[C@H](C(C)(C)C)NC(=O)O[C@@H]1[C@H]2CC[C@H](C2)[C@H]1CCCCC3` [Example 5, (1R,4S,4aR,8S,11S,13R,25aR)-8-tert-butyl-N-[(1R,2R)-2-(difluoromethyl)-1-{[(1-methylcyclopropyl)sulfonyl]carbamoyl}cyclopropyl]-17-methoxy-6,9-dioxo-2,3,4,4a,6,7,8,9,12,13,21,22,23,24,25,25a-hexadecahydro-1H,11H-1, 4:10,13-dimethanoquinoxalino[2,3-k][1,10,3,6]benzodioxadiazacyclononadecine-11-carboxamide] registered an inhibition constant Ki on NS3 genotype 1b protease of 0.02 nM. Also, the EC50 in assay [1] was found to be 5 nM; in assay [2], 3.9 nM; in assay [3], 64 nM; in assay [4], 4.2 nM; in assay [5], 35 nM; in assay [6] it was 2.1 nM.
Regarding `COc1ccc2nc3c(nc2c1)O[C@@H]1C[C@@H](C(=O)N[C@]2(C(=O)NS(=O)(=O)C4CC4)C[C@H]2C(F)F)N(C1)C(=O)[C@H](C(C)(C)C)NC(=O)O[C@H]1[C@H](CCCCC3)C[C@H]2C[C@H]21` [Example 7, (1aR,1bS,5S,8S,10R,22aR,23aR)-5-tert-butyl-N-[(1R,2R)-1-[(cyclopropylsulfonyl)carbamoyl]-2-(difluoromethyl)cyclopropyl]-14-methoxy-3,6-dioxo-1a,1b,3,4,5,6,9,10,18,19,20,21,22,22a,23,23a-hexadecahydro-1H,8H-7,10-methanocyclopropa[3′,40]cyclopenta[1′,2′:18,19][1,10,3,6]dioxadiazacyclononadecino[11,12-b]quinoxaline-8-carboxamide], the Ki at NS3 genotype 1b protease amounted to 0.05 nM. The concentration giving a half-maximal response (EC50) in assay [1] worked out at 95 nM; in assay [2] it was 55 nM; in assay [3], 928 nM; in assay [4], 72 nM; in assay [5], 180 nM; in assay [6], 53 nM.
As to `COc1ccc2nc3c(nc2c1)O[C@@H]1C[C@@H](C(=O)N[C@]2(C(=O)NS(=O)(=O)C4(C)CC4)C[C@H]2C(F)F)N(C1)C(=O)[C@H](C(C)(C)C)NC(=O)O[C@H]1[C@H](CCCCC3)C[C@H]2C[C@H]21` [Example 8, (1aR,1bS,5S,8S,10R,22aR,23aR)-5-tert-butyl-N-[(1R,2R)-2-(difluoromethyl)-1-{[(1-methylcyclopropyl)sulfonyl]carbamoyl}cyclopropyl]-14-methoxy-3,6-dioxo-1a,1b,3,4,5,6,9,10,18,19,20,21,22,22a, 23,23a-hexadecahydro-1H,8H-7,10-methanocyclopropa[3′,4′]cyclopenta [1′,2′:18,19][1,10,3,6]dioxadiazacyclononadecino[11,12-b]quinoxaline-8-carboxamide], the affinity at NS3 genotype 1b protease, expressed as Ki, was 0.04 nM. For the same molecule, the EC50 was 76 nM in assay [1]; 33 nM in assay [2]; 817 nM in assay [3]; 72 nM in assay [4]; 148 nM in assay [5]; 33 nM in assay [6].
In the case of `COc1ccc2nc3c(nc2c1)O[C@@H]1C[C@@H](C(=O)N[C@]2(C(=O)NS(=O)(=O)C4(C)CC4)C[C@H]2C(F)F)N(C1)C(=O)[C@H](C(C)(C)C)NC(=O)O[C@@H]1C[C@@H]2C[C@@H]2[C@H]1CCCCC3(F)F` [Example 10, (1aS,2aR,6S,9S,11R,23aR,23bS)-6-tert-butyl-N-[(1R,2R)-2-(difluoromethyl)-1-{[(1-methylcyclopropyl)sulfonyl]carbamoyl}cyclopropyl]-19,19-difluoro-15-methoxy-4,7-dioxo-1a,2,2a,4,5,6,7,10,11,19,20,21,22,23,23a,23b-hexadecahydro-1H,9H-8,11-methanocyclopropa [4′,5′]cyclopenta[1′,2′:18,19][1,10,3,6]dioxadiazacyclononadecino[11,12-b]quinoxaline-9-carboxamide], the Ki at NS3 genotype 1b protease is 0.02 nM. The concentration giving a half-maximal response (EC50) stood at 1.6 nM in assay [1]; 1.3 nM in assay [2]; 2.3 nM in assay [3]; 1.4 nM in assay [4]; 1.3 nM in assay [5]; 0.75 nM in assay [6].
On NS3 genotype 1b protease, `CC(C)(C)[C@@H]1NC(=O)O[C@@H]2C[C@@H]3C[C@@H]3[C@H]2CCCCCc2nc3ccc(F)cc3nc2O[C@@H]2C[C@@H](C(=O)N[C@]3(C(=O)NS(=O)(=O)C4(C)CC4)C[C@H]3C(F)F)N(C2)C1=O` [Example 11, (1aS,2aR,6S,9S,11R,23aR,23bS)-6-tert-butyl-N-[(1R,2R)-2-(difluoromethyl)-1-{[(1-methylcyclopropyl)sulfonyl]carbamoyl}cyclopropyl]-15-fluoro-4,7-dioxo-1a,2,2a,4,5,6,7,10,11,19,20,21,22,23,23a,23b-hexadecahydro-1H,9H-8,11-methanocyclopropa[4′,5′]cyclopenta[1′,2′:18,19][1,10,3,6]dioxadiazacyclononadecino[11,12-b]quinoxaline-9-carboxamide] returned a Ki of 0.02 nM. Moreover, the EC50 in assay [1] came out at 1.4 nM; in assay [2], 1.2 nM; in assay [3], 9.7 nM; in assay [4] it was 1.4 nM; in assay [5] it was 1.9 nM; in assay [6], 0.78 nM.
With `CC(C)(C)[C@@H]1NC(=O)O[C@@H]2C[C@@H]3C[C@@H]3[C@H]2CCCCCc2nc3ccc(F)cc3nc2O[C@@H]2C[C@@H](C(=O)N[C@]3(C(=O)NS(=O)(=O)C4CC4)C[C@H]3C(F)F)N(C2)C1=O` [Example 12, (1aS,2aR,6S,9S,11R,23aR,23bS)-6-tert-butyl-N-[(1R,2R)-1-[(cyclopropylsulfonyl)carbamoyl]-2-(difluoromethyl)cyclopropyl]-15-fluoro-4,7-dioxo-1a,2,2a,4,5,6,7,10,11,19,20,21,22,23,23a,23b-hexadecahydro-1H,9H-8,11-methanocyclopropa[4′,5′]cyclopenta[1′,2′:18,19][1,10,3,6]dioxadiazacyclononadecino[11,12-b]quinoxaline-9-carboxamide], the Ki on NS3 genotype 1b protease was 0.02 nM. The concentration for a half-maximal effect (EC50) in assay [1] came out at 1.7 nM; in assay [2] it was 1.4 nM; in assay [3] it was 22 nM; in assay [4] it was 0.8 nM; in assay [5], 1.9 nM; in assay [6], 0.64 nM.

The Ki is the dissociation constant of the complex between target and ligand, obtained from inhibition or displacement. One may read the EC50 as the concentration needed to bring the measured effect to its halfway point.
